# Measurements from ChEMBL document CHEMBL3885881, “DrugMatrix”.
# Organism: Rattus norvegicus
# Assay: DrugMatrix - Regimen: Daily Repeat
# Assay type: toxicity, organism-based, Sprague-Dawley
# Design: regimen Daily Repeat, gender Male, age 6-8 weeks
# Settings: in vivo, po, route oral GAVAGE, vehicle 100 % SALINE; for ABSOLUTE BASOPHIL / ABSOLUTE EOSINOPHIL / ABSOLUTE LYMPHOCYTE / ABSOLUTE MONOCYTE / ABSOLUTE SEGMENTED NEUTROPHIL / BASOPHIL / EOSINOPHIL / ERYTHROCYTE COUNT / HEMATOCRIT / HEMOGLOBIN / LEUKOCYTE COUNT / LYMPHOCYTE / MEAN CORPUSCULAR HEMOGLOBIN / MEAN CORPUSCULAR HEMOGLOBIN CONCENTRATION / MEAN CORPUSCULAR VOLUME / MONOCYTE / NEUTROPHIL / NUCLEATED RED BLOOD CELLS / PLATELET COUNT: tissue Blood; for ALANINE AMINOTRANSFERASE / ALBUMIN / ALKALINE PHOSPHATASE / ASPARTATE AMINOTRANSFERASE / BLOOD UREA NITROGEN / CARBON DIOXIDE / CHLORIDE / CHOLESTEROL / CREATINE PHOSPHOKINASE / CREATININE / GLUCOSE / LACTATE DEHYDROGENASE / LIPASE / PHOSPHORUS / POTASSIUM / SODIUM / TOTAL BILIRUBIN / TOTAL PROTEIN / URIC ACID: tissue Plasma
# [1] = 0 mg/kg, 72 h, dose level Control, time 3 day
# [2] = 0 mg/kg, 120 h, dose level Control, time 5 day
# [3] = 11 mg/kg, 72 h, dose level High, time 3 day
smiles,measurement,setting,value
Cc1cc(CC(=O)O)n(C)c1C(=O)c1ccc(Cl)cc1 [ZOMEPIRAC],ABSOLUTE BASOPHIL,[1],0 CELLS/uL
same,ABSOLUTE EOSINOPHIL,[1],65.67 CELLS/uL
same,ABSOLUTE LYMPHOCYTE,[1],17283.5 CELLS/uL
same,ABSOLUTE MONOCYTE,[1],0 CELLS/uL
same,ABSOLUTE SEGMENTED NEUTROPHIL,[1],1284.17 CELLS/uL
same,BASOPHIL,[1],0%
same,EOSINOPHIL,[1],0.33%
same,ERYTHROCYTE COUNT,[1],5.46 x10E6/uL
same,HEMATOCRIT,[1],34.28%
same,HEMOGLOBIN,[1],13.78 G/DL
same,LEUKOCYTE COUNT,[1],18.63 x10E3/uL
same,LYMPHOCYTE,[1],92.67%
same,MEAN CORPUSCULAR HEMOGLOBIN,[1],25.3 pg
same,MEAN CORPUSCULAR HEMOGLOBIN CONCENTRATION,[1],40.22 G/DL
same,MEAN CORPUSCULAR VOLUME,[1],62.87 fL
same,MONOCYTE,[1],0%
same,NEUTROPHIL,[1],7%
same,NUCLEATED RED BLOOD CELLS,[1],0 /100WBC
same,PLATELET COUNT,[1],1244.83 x10E3/uL
same,ALANINE AMINOTRANSFERASE,[1],52.83 u/L
same,ALBUMIN,[1],4 G/DL
same,ALKALINE PHOSPHATASE,[1],327.67 u/L
same,ASPARTATE AMINOTRANSFERASE,[1],78.83 u/L
same,BLOOD UREA NITROGEN,[1],13.83 mg/dL
same,CARBON DIOXIDE,[1],26.67 mmol/L
same,CHLORIDE,[1],99.67 MEQ/L
same,CHOLESTEROL,[1],69 mg/dL
same,CREATINE PHOSPHOKINASE,[1],350.17 u/L
same,CREATININE,[1],0.21 mg/dL
same,GLUCOSE,[1],173.83 mg/dL
same,LACTATE DEHYDROGENASE,[1],168.33 u/L
same,LIPASE,[1],11 u/L
same,PHOSPHORUS,[1],12.7 mg/dL
same,POTASSIUM,[1],6.88 MEQ/L
same,SODIUM,[1],141.68 MEQ/L
same,TOTAL BILIRUBIN,[1],0.22 mg/dL
same,TOTAL PROTEIN,[1],6.02 G/DL
same,URIC ACID,[1],1.9 mg/dL
same,ABSOLUTE BASOPHIL,[2],0 CELLS/uL
same,ABSOLUTE EOSINOPHIL,[2],14.83 CELLS/uL
same,ABSOLUTE LYMPHOCYTE,[2],12880 CELLS/uL
same,ABSOLUTE MONOCYTE,[2],90.67 CELLS/uL
same,ABSOLUTE SEGMENTED NEUTROPHIL,[2],864.5 CELLS/uL
same,BASOPHIL,[2],0%
same,EOSINOPHIL,[2],0.17%
same,ERYTHROCYTE COUNT,[2],5.83 x10E6/uL
same,HEMATOCRIT,[2],35.87%
same,HEMOGLOBIN,[2],14 G/DL
same,LEUKOCYTE COUNT,[2],13.85 x10E3/uL
same,LYMPHOCYTE,[2],92.5%
same,MEAN CORPUSCULAR HEMOGLOBIN,[2],24.03 pg
same,MEAN CORPUSCULAR HEMOGLOBIN CONCENTRATION,[2],39.03 G/DL
same,MEAN CORPUSCULAR VOLUME,[2],61.53 fL
same,MONOCYTE,[2],0.67%
same,NEUTROPHIL,[2],6.67%
same,NUCLEATED RED BLOOD CELLS,[2],0 /100WBC
same,PLATELET COUNT,[2],1041.83 x10E3/uL
same,ALANINE AMINOTRANSFERASE,[2],56 u/L
same,ALBUMIN,[2],4.47 G/DL
same,ALKALINE PHOSPHATASE,[2],319 u/L
same,ASPARTATE AMINOTRANSFERASE,[2],89.17 u/L
same,BLOOD UREA NITROGEN,[2],15.2 mg/dL
same,CARBON DIOXIDE,[2],24 mmol/L
same,CHLORIDE,[2],104.4 MEQ/L
same,CHOLESTEROL,[2],69.5 mg/dL
same,CREATINE PHOSPHOKINASE,[2],295.83 u/L
same,CREATININE,[2],0.21 mg/dL
same,GLUCOSE,[2],124.33 mg/dL
same,LACTATE DEHYDROGENASE,[2],325.5 u/L
same,LIPASE,[2],14.67 u/L
same,PHOSPHORUS,[2],11.45 mg/dL
same,POTASSIUM,[2],6.74 MEQ/L
same,SODIUM,[2],151.4 MEQ/L
same,TOTAL BILIRUBIN,[2],0.23 mg/dL
same,TOTAL PROTEIN,[2],6.45 G/DL
same,URIC ACID,[2],1.18 mg/dL
same,ABSOLUTE BASOPHIL,[3],0 CELLS/uL
same,ABSOLUTE EOSINOPHIL,[3],0 CELLS/uL
same,ABSOLUTE LYMPHOCYTE,[3],16900 CELLS/uL
same,ABSOLUTE MONOCYTE,[3],480 CELLS/uL
same,ABSOLUTE SEGMENTED NEUTROPHIL,[3],3253.33 CELLS/uL
same,BASOPHIL,[3],0%
same,EOSINOPHIL,[3],0%
same,ERYTHROCYTE COUNT,[3],5.38 x10E6/uL
same,HEMATOCRIT,[3],33.2%
same,HEMOGLOBIN,[3],13.37 G/DL
same,LEUKOCYTE COUNT,[3],20.63 x10E3/uL
same,LYMPHOCYTE,[3],83.67%
same,MEAN CORPUSCULAR HEMOGLOBIN,[3],24.83 pg
same,MEAN CORPUSCULAR HEMOGLOBIN CONCENTRATION,[3],40.27 G/DL
same,MEAN CORPUSCULAR VOLUME,[3],61.67 fL
same,MONOCYTE,[3],2%
same,NEUTROPHIL,[3],14.33%
same,NUCLEATED RED BLOOD CELLS,[3],0 /100WBC
same,PLATELET COUNT,[3],1231.67 x10E3/uL
same,ALANINE AMINOTRANSFERASE,[3],59 u/L
same,ALBUMIN,[3],3.87 G/DL
same,ALKALINE PHOSPHATASE,[3],255.33 u/L
same,ASPARTATE AMINOTRANSFERASE,[3],72.67 u/L
same,BLOOD UREA NITROGEN,[3],13.33 mg/dL
same,CARBON DIOXIDE,[3],25.33 mmol/L
same,CHLORIDE,[3],101 MEQ/L
same,CHOLESTEROL,[3],69 mg/dL
same,CREATINE PHOSPHOKINASE,[3],224.67 u/L
same,CREATININE,[3],0.23 mg/dL
same,GLUCOSE,[3],183.67 mg/dL
same,LACTATE DEHYDROGENASE,[3],112.67 u/L
same,LIPASE,[3],10.33 u/L
same,PHOSPHORUS,[3],11.5 mg/dL
same,POTASSIUM,[3],5.88 MEQ/L
same,SODIUM,[3],141.43 MEQ/L
same,TOTAL BILIRUBIN,[3],0.2 mg/dL
same,TOTAL PROTEIN,[3],5.77 G/DL
same,URIC ACID,[3],1.47 mg/dL
